According to patent US20120121591A1 (priority 2009, published 2012):

Key:
Assay type in all cases: cell-based
[1] = tested on: IL-2 secretion from T cells in human whole blood; conditions: read-out: WB (IL-2) IC50 (nM, Avg)
hKv1.3 = hKv1.3 (Homo sapiens, UniProt P22001); experiment: cell-based; conditions: Kv1.3 (IWQ) IC50 (nM, Avg)
[2] = tested on: IFN-g secretion from T cells in human whole blood; conditions: read-out: WB (IFNg) IC50 (nM, Avg)

Chain of hKv1.3 (P22001 whole entry): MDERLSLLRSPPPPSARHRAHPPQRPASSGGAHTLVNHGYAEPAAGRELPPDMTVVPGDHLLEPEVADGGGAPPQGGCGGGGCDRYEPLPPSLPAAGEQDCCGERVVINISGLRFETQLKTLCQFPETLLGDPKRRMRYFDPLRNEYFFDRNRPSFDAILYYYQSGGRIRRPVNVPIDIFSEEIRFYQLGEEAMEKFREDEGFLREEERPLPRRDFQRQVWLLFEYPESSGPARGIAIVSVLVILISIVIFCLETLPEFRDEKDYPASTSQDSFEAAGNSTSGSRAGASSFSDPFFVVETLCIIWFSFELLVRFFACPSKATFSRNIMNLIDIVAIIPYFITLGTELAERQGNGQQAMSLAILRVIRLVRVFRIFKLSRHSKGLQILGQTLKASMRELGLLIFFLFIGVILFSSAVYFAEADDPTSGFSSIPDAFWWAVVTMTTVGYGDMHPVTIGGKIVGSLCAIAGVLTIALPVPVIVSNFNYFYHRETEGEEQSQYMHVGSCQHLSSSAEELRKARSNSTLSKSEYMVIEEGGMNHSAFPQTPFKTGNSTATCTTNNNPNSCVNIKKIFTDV

SMILES | IC50 [1] [nM] | IC50 (hKv1.3) [nM] | IC50 [2] [nM]
CC[C@H](C)[C@@H]1NC(=O)[C@@H](NC(=O)[C@H](CO)NC(=O)[C@@H](N)CCCNC(=N)N)CSSC[C@@H](C(N)=O)NC(=O)[C@H]([C@@H](C)O)NC(=O)CNC(=O)[C@@H]2CSSC[C@@H]3NC(=O)[C@H](CCCCN)NC(=O)[C@H](Cc4ccccc4)NC(=O)[C@H](C)NC(=O)[C@H]([C@@H](C)O)NC(=O)[C@H](CSSC[C@H](NC(=O)[C@H](Cc4ccccc4)NC(=O)[C@H](CO)NC(=O)[C@H](CC(C)C)NC(=O)[C@H](CCCNC(=N)N)NC(=O)[C@H](Cc4ccc(O)cc4)NC(=O)[C@H](CCCCN)NC(=O)[C@H](CCSC)NC(=O)[C@H](CO)NC(=O)[C@H](Cc4c[nH]cn4)NC(=O)[C@H](CCCCN)NC3=O)C(=O)N[C@@H](CCCNC(=N)N)C(=O)N[C@@H](CCCNC(=N)N)C(=O)N[C@@H]([C@@H](C)O)C(=O)N2)NC(=O)[C@H](CCCNC(=N)N)NC(=O)[C@H](CO)NC(=O)[C@H](CCCCN)NC(=O)[C@@H]2CCCN2C(=O)[C@H]([C@@H](C)CC)NC(=O)[C@H]([C@@H](C)O)NC(=O)[C@H](CC(=O)O)NC1=O [[Lys16,Arg30]ShK-amide] | 0.151 | 0.129 | 0.236
CC[C@H](C)[C@@H]1NC(=O)[C@@H](NC(=O)[C@H](CO)NC(=O)[C@@H](N)CCCNC(=N)N)CSSC[C@@H](C(=O)N[C@@H](C)C(=O)O)NC(=O)[C@H]([C@@H](C)O)NC(=O)CNC(=O)[C@@H]2CSSC[C@@H]3NC(=O)[C@H](CCCCN)NC(=O)[C@H](Cc4ccccc4)NC(=O)[C@H](C)NC(=O)[C@H]([C@@H](C)O)NC(=O)[C@H](CSSC[C@H](NC(=O)[C@H](Cc4ccccc4)NC(=O)[C@H](CO)NC(=O)[C@H](CC(C)C)NC(=O)[C@H](CCCNC(=N)N)NC(=O)[C@H](Cc4ccc(O)cc4)NC(=O)[C@H](CCCCN)NC(=O)[C@H](CC(N)=O)NC(=O)[C@H](CO)NC(=O)[C@H](Cc4c[nH]cn4)NC(=O)[C@H](CCCCN)NC3=O)C(=O)N[C@@H](CCCNC(=N)N)C(=O)N[C@@H](CCCCN)C(=O)N[C@@H]([C@@H](C)O)C(=O)N2)NC(=O)[C@H](CCCNC(=N)N)NC(=O)[C@H](CO)NC(=O)[C@H](CCCCN)NC(=O)[C@@H]2CCCN2C(=O)[C@H]([C@@H](C)CC)NC(=O)[C@H]([C@@H](C)O)NC(=O)[C@H](CC(=O)O)NC1=O [[Lys16,Asn21]ShK-Ala] | 0.891 | 33 | 0.693
CC[C@H](C)[C@@H]1NC(=O)[C@@H](NC(=O)[C@H](CO)NC(=O)[C@@H](N)CCCNC(=N)N)CSSC[C@@H](C(=O)N[C@@H](C)C(=O)O)NC(=O)[C@H]([C@@H](C)O)NC(=O)CNC(=O)[C@@H]2CSSC[C@@H]3NC(=O)[C@H](CCCCN)NC(=O)[C@H](Cc4ccccc4)NC(=O)[C@H](C)NC(=O)[C@H]([C@@H](C)O)NC(=O)[C@H](CSSC[C@H](NC(=O)[C@H](Cc4ccccc4)NC(=O)[C@H](CO)NC(=O)[C@H](CC(C)C)NC(=O)[C@H](CCCNC(=N)N)NC(=O)[C@H](Cc4ccc(O)cc4)NC(=O)[C@H](CCCCN)NC(=O)[C@H](CCC(N)=O)NC(=O)[C@H](CO)NC(=O)[C@H](Cc4c[nH]cn4)NC(=O)[C@H](CCCCN)NC3=O)C(=O)N[C@@H](CCCNC(=N)N)C(=O)N[C@@H](CCCCN)C(=O)N[C@@H]([C@@H](C)O)C(=O)N2)NC(=O)[C@H](CCCNC(=N)N)NC(=O)[C@H](CO)NC(=O)[C@H](CCCCN)NC(=O)[C@@H]2CCCN2C(=O)[C@H]([C@@H](C)CC)NC(=O)[C@H]([C@@H](C)O)NC(=O)[C@H](CC(=O)O)NC1=O [[Lys16,Gln21]ShK-Ala] | 0.168 | 4.01 | 0.206
CCCC[C@@H]1NC(=O)[C@H](CO)NC(=O)[C@H](Cc2c[nH]cn2)NC(=O)[C@H](CCC(=O)O)NC(=O)[C@@H]2CSSC[C@@H]3NC(=O)[C@H]([C@@H](C)O)NC(=O)[C@H](CCCCN)NC(=O)[C@H](CCCNC(=N)N)NC(=O)[C@H](CSSC[C@H](NC(=O)[C@H](CCCNC(=N)N)NC(=O)[C@H](CO)NC(=O)[C@H](CCCCN)NC(=O)[C@@H]4CCCN4C(=O)[C@H]([C@@H](C)CC)NC(=O)[C@H]([C@@H](C)O)NC(=O)[C@H](CC(=O)O)NC(=O)[C@H]([C@@H](C)CC)NC(=O)[C@@H](NC(=O)[C@H](CO)NC(=O)[C@@H](N)CCCNC(=N)N)CSSC[C@@H](C(N)=O)NC(=O)[C@H]([C@@H](C)O)NC(=O)CNC3=O)C(=O)N[C@@H]([C@@H](C)O)C(=O)N[C@@H](C)C(=O)N[C@@H](Cc3ccccc3)C(=O)N[C@@H](CCCCN)C(=O)N2)NC(=O)[C@H](Cc2ccccc2)NC(=O)[C@H](CO)NC(=O)[C@H](CC(C)C)NC(=O)[C@H](CCCNC(=N)N)NC(=O)[C@H](Cc2ccc(O)cc2)NC(=O)[C@H](CCCCN)NC1=O [[Lys16,Glu18,Nle21]ShK-amide] | 0.477 | 0.28 | 0.929
CCCC[C@@H]1NC(=O)[C@H](CO)NC(=O)[C@H](Cc2c[nH]cn2)NC(=O)[C@H](CCCCN)NC(=O)[C@@H]2CSSC[C@@H]3NC(=O)[C@H]([C@@H](C)O)NC(=O)[C@H](CCCCN)NC(=O)[C@H](CCCNC(=N)N)NC(=O)[C@H](CSSC[C@H](NC(=O)[C@H](CCCNC(=N)N)NC(=O)[C@H](CO)NC(=O)[C@H](CCCCN)NC(=O)[C@@H]4CCCN4C(=O)[C@H]([C@@H](C)CC)NC(=O)[C@H]([C@@H](C)O)NC(=O)[C@H](CC(=O)O)NC(=O)[C@H]([C@@H](C)CC)NC(=O)[C@@H](NC(=O)[C@H](CO)NC(=O)[C@@H](N)CCCNC(=N)N)CSSC[C@@H](C(=O)N[C@@H](C)C(=O)O)NC(=O)[C@H]([C@@H](C)O)NC(=O)CNC3=O)C(=O)N[C@@H]([C@@H](C)O)C(=O)N[C@@H](C)C(=O)N[C@@H](Cc3ccccc3)C(=O)N[C@@H](CCCCN)C(=O)N2)NC(=O)[C@H](Cc2ccccc2)NC(=O)[C@H](CO)NC(=O)[C@H](CC(C)C)NC(=O)[C@H](CCCNC(=N)N)NC(=O)[C@H](Cc2ccc(O)cc2)NC(=O)[C@H](CCCCN)NC1=O [[Lys16,N1e21]ShK-Ala] | 0.305 | 33.3 | 0.515
CCCC[C@@H]1NC(=O)[C@H](CO)NC(=O)[C@H](Cc2c[nH]cn2)NC(=O)[C@H](CCCCN)NC(=O)[C@@H]2CSSC[C@@H]3NC(=O)[C@H]([C@@H](C)O)NC(=O)[C@H](CCCCN)NC(=O)[C@H](CCCNC(=N)N)NC(=O)[C@H](CSSC[C@H](NC(=O)[C@H](CCCNC(=N)N)NC(=O)[C@H](CO)NC(=O)[C@H](CCCCN)NC(=O)[C@@H]4CCCN4C(=O)[C@H]([C@@H](C)CC)NC(=O)[C@H]([C@@H](C)O)NC(=O)[C@H](CC(=O)O)NC(=O)[C@H]([C@@H](C)CC)NC(=O)[C@@H](NC(=O)[C@H](CO)NC(=O)[C@@H](N)CCCNC(=N)N)CSSC[C@@H](C(=O)N[C@@H](CCC(=O)O)C(=O)O)NC(=O)[C@H]([C@@H](C)O)NC(=O)CNC3=O)C(=O)N[C@@H]([C@@H](C)O)C(=O)N[C@@H](C)C(=O)N[C@@H](Cc3ccccc3)C(=O)N[C@@H](CCCCN)C(=O)N2)NC(=O)[C@H](Cc2ccccc2)NC(=O)[C@H](CO)NC(=O)[C@H](CC(C)C)NC(=O)[C@H](CCCNC(=N)N)NC(=O)[C@H](Cc2ccc(O)cc2)NC(=O)[C@H](CCCCN)NC1=O [[Lys16,N1e21]ShK-Glu] | 0.386 | 22.5 | 0.621
CCCC[C@@H]1NC(=O)[C@H](CO)NC(=O)[C@H](Cc2c[nH]cn2)NC(=O)[C@H](CCCCN)NC(=O)[C@@H]2CSSC[C@@H]3NC(=O)[C@H]([C@@H](C)O)NC(=O)[C@H](CCCCN)NC(=O)[C@H](CCCNC(=N)N)NC(=O)[C@H](CSSC[C@H](NC(=O)[C@H](CCCNC(=N)N)NC(=O)[C@H](CO)NC(=O)[C@H](CCCCN)NC(=O)[C@@H]4CCCN4C(=O)[C@H]([C@@H](C)CC)NC(=O)[C@H]([C@@H](C)O)NC(=O)[C@H](CC(=O)O)NC(=O)[C@H]([C@@H](C)CC)NC(=O)[C@@H](NC(=O)[C@H](CO)NC(=O)[C@@H](N)CCCNC(=N)N)CSSC[C@@H](C(=O)N[C@@H](Cc4ccc(O)cc4)C(=O)O)NC(=O)[C@H]([C@@H](C)O)NC(=O)CNC3=O)C(=O)N[C@@H]([C@@H](C)O)C(=O)N[C@@H](C)C(=O)N[C@@H](Cc3ccccc3)C(=O)N[C@@H](CCCCN)C(=O)N2)NC(=O)[C@H](Cc2ccccc2)NC(=O)[C@H](CO)NC(=O)[C@H](CC(C)C)NC(=O)[C@H](CCCNC(=N)N)NC(=O)[C@H](Cc2ccc(O)cc2)NC(=O)[C@H](CCCCN)NC1=O [[Lys16,N1e21]ShK-Tyr] | 0.418 | 109 | 0.485
CCCC[C@@H]1NC(=O)[C@H](CO)NC(=O)[C@H](Cc2c[nH]cn2)NC(=O)[C@H](CCCCN)NC(=O)[C@@H]2CSSC[C@@H]3NC(=O)[C@H]([C@@H](C)O)NC(=O)[C@H](CCCCN)NC(=O)[C@H](CCCNC(=N)N)NC(=O)[C@H](CSSC[C@H](NC(=O)[C@H](CCCNC(=N)N)NC(=O)[C@H](CO)NC(=O)[C@H](CCCCN)NC(=O)[C@@H]4CCCN4C(=O)[C@H]([C@@H](C)CC)NC(=O)[C@H]([C@@H](C)O)NC(=O)[C@H](CC(=O)O)NC(=O)[C@H]([C@@H](C)CC)NC(=O)[C@@H](NC(=O)[C@H](CO)NC(=O)[C@@H](N)CCCNC(=N)N)CSSC[C@@H](C(=O)O)NC(=O)[C@H]([C@@H](C)O)NC(=O)CNC3=O)C(=O)N[C@@H]([C@@H](C)O)C(=O)N[C@@H](C)C(=O)N[C@@H](Cc3ccccc3)C(=O)N[C@@H](CCCCN)C(=O)N2)NC(=O)[C@H](Cc2ccccc2)NC(=O)[C@H](CO)NC(=O)[C@H](CC(C)C)NC(=O)[C@H](CCCNC(=N)N)NC(=O)[C@H](Cc2ccc(O)cc2)NC(=O)[C@H](CCCCN)NC1=O [[Lys16,N1e21]ShK] | 0.249 | 0.13 | 0.848
